The source of these data is article PMC12529881, “Quantitative analysis of inhibitor‐induced assembly disruption in human UDP‐GlcNAc 2‐epimerase using mass photometry” (Protein Science : A Publication of the Protein Society, 2025).

For orientation: IC50 means the concentration that inhibits the measured activity by half.

The target of data set [1] is T1, human UDP‐GlcNAc 2‐epimerase (GNE) (Homo sapiens, UniProt Q9Y223).
T1 construct: The MNK subunit connects to the C‐terminus of the GNE subunit; made in house; host or cells: Escherichia coli BL21 (DE3)
T1 sequence (Q9Y223 1-405 limits assumed): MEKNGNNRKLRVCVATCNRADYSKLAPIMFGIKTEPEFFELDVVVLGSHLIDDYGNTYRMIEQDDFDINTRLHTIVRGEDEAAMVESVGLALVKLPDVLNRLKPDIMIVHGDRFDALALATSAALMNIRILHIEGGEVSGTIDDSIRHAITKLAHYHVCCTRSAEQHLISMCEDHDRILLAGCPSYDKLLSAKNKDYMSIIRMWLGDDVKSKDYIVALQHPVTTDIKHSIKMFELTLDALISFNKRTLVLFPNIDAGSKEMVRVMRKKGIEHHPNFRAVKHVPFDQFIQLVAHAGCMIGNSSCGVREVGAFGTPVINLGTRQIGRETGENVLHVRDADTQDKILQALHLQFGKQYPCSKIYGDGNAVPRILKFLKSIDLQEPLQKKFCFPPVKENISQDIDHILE
Put plainly: Mass photometry GNE assembly inhibition (inhibitor titration against 800 nM GNE). The data set is classed as biochemical. As to conditions: for IC50 / effect on dimeric assembly: 800 nM GNE; for effect on dimeric assembly: absence of UDP‐GlcNAc; for Ki: from IC50 ^S (T) by modified Cheng–Prusoff equation (Equation S4), read-out: K i ^S (T). As to the method: All MP measurements were conducted using a OneMP (Refeyn) instrument equipped with a 525 nm green laser. To minimize background noise, the instrument was placed on an active vibration isolation system (Accurion i4 Series, Park Systems). High‐precision glass coverslips (Paul Marienfeld GmbH & Co. KG, Cat# 0107222) were thoroughly cleaned before use to ensure optimal measurement conditions. Prior to MP measurements, samples were incubated in phosphate buffer (DPBS[−|−], Gibco, Cat# 14190144) and low‐binding tubes for 30 min in a ThermoMixer C (Eppendorf, Cat# 5382000015) at 20°C to allow binding equilibrium to be reached. Immediately before measurement, a 50 nM working solution was prepared. Then, 5 μL of the working solution was added to a 15 μL DPBS (−|−) droplet on the glass coverslip, followed by mixing upon pipetting to ensure proper distribution before measurements began immediately. […] For the measurements, a regular field of view was used. Data acquisition was performed over a 60‐s detection period with manual focus adjustment. Data were recorded using the software AquireMP (2024 R2, Refeyn) and referenced against a glycinin mass standard in DPBS (−|−). The glycinin standard, derived from defatted soybean flour, forms characteristic trimers (160 kDa), hexamers (320 kDa), nonamers (480 kDa), and dodecamers (640 kDa). Purified and lyophilized glycinin was kindly provided by the group of Dr. Rumiana Dimova (Chen et al., [2020]; Mangiarotti et al., [2025]). Data analysis and graphical visualization were performed using DiscoverMP (2024 R2, Refeyn) and GraphPad Prism 10 (10.1.1, Dotmatics). All experiments were conducted in at least three independent replicates, each performed as technical triplicates.
Twofold serial dilutions of the inhibitors (500–7.81 μM) were titrated against a constant GNE concentration (800 nM), either in the presence or absence of UDP‐GlcNAc (100 μM). The GNE and substrate concentrations were selected based on titration experiments ensuring binding saturation and the establishment of an assembly equilibrium. Prior to measurements, samples were incubated for 30 min at 20°C to allow equilibrium to be reached. IC50 values were determined from protein fraction vs. inhibitor concentration plots and fitted using a Hill‐based logistic function (Equation S3). Subsequently, K i values for GNE inhibitors were derived from a Cheng–Prusoff equation accounting for allostery (Equation S4), detailed in Supporting Information S1.

The target of data set [2] is T1, human UDP‐GlcNAc 2‐epimerase (GNE). Put plainly: Mass photometry Schild experiments and OMAM global fit (GNE tetramer inhibition by C15). The data set is classed as binding. The procedure:
(§1) All MP measurements were conducted using a OneMP (Refeyn) instrument equipped with a 525 nm green laser. To minimize background noise, the instrument was placed on an active vibration isolation system (Accurion i4 Series, Park Systems). High‐precision glass coverslips (Paul Marienfeld GmbH & Co. KG, Cat# 0107222) were thoroughly cleaned before use to ensure optimal measurement conditions. Prior to MP measurements, samples were incubated in phosphate buffer (DPBS[−|−], Gibco, Cat# 14190144) and low‐binding tubes for 30 min in a ThermoMixer C (Eppendorf, Cat# 5382000015) at 20°C to allow binding equilibrium to be reached. Immediately before measurement, a 50 nM working solution was prepared. Then, 5 μL of the working solution was added to a 15 μL DPBS (−|−) droplet on the glass coverslip, followed by mixing upon pipetting to ensure proper distribution before measurements began immediately. This approach provided high reproducibility in our results. For the measurements, a regular field of view was used. Data acquisition was performed over a 60‐s detection period with manual focus adjustment. Data were recorded using the software AquireMP (2024 R2, Refeyn) and referenced against a glycinin mass standard in DPBS (−|−). The glycinin standard, derived from defatted soybean flour, forms characteristic trimers (160 kDa), hexamers (320 kDa), nonamers (480 kDa), and dodecamers (640 kDa). Purified and lyophilized glycinin was kindly provided by the group of Dr. Rumiana Dimova (Chen et al., [2020]; Mangiarotti et al., [2025]). Data analysis and graphical visualization were performed using DiscoverMP (2024 R2, Refeyn) and GraphPad Prism 10 (10.1.1, Dotmatics). All experiments were conducted in at least three independent replicates, each performed as technical triplicates.
To assess the binding affinity of inhibitors to GNE, modified Schild experiments were performed using MP. Serial dilutions of UDP‐GlcNAc (800 μM to 100 nM) were titrated against a constant GNE concentration (800 nM) in the presence of varying concentrations of inhibitor C15 (200 μM to 2 nM). Enzyme and substrate concentrations were chosen based on prior titration experiments (Figure 2c,g) to ensure a stable oligomeric equilibrium. Inhibitor concentrations were selected around the IC50 to enable accurate response characterization. Samples were incubated for 30 min at 20°C to ensure equilibration before measurement. EC50 values were obtained from substrate titration curves (tetramer fraction vs. UDP‐GlcNAc concentration), fitted using a Hill‐based function (Equation S3). The resulting EC50 values in the presence of inhibitor (EC50,Inh) were converted into logarithmic concentration ratios (log(CR‐1)) and plotted against the corresponding logarithmic inhibitor concentrations to generate a Schild plot. Data points were then fitted using a linear Schild equation (Equation S5), as described in the Supporting Information S1. Further cooperative factors were obtained from fitting the substrate concentration‐dependent response curves globally with an OMAM model (Equation S6) (Jakubík et al., [2020]).

Data set [3] has as its system GNE. More on the design: method as in Chen et al., 2016. The settings on record: ref Chen et al., 2016; cited from earlier work.
Data set [4] has as its target T1, human UDP‐GlcNAc 2‐epimerase (GNE). Put plainly: Mass photometry affinity measurements of GNE subunits / substrate titration. The data set is classed as binding. The procedure: as §1
To determine the intermolecular protein affinities of GNE subunits, their assembly distribution was assessed using MP experiments. In the absence of substrate, serial GNE dilutions (50 μM to 50 nM) were performed to evaluate GNE subunit interactions. In the presence of UDP‐GlcNAc, intermolecular affinity changes were assessed through two titration approaches: First, different concentrations of UDP‐GlcNAc (500–7.81 μM) were titrated against a fixed concentration of GNE (0.8 μM). Second, different concentrations of GNE (0.2–10 μM) were titrated against a fixed concentration of UDP‐GlcNAc (100 μM). KD values were obtained from binding curves (Figure S4), fitted using a Hill‐based logistic model (Equation S1) (Fineberg et al., [2020]). The following dissociation constants were determined: K D ^0 (M:M) and K D ^0 (D:D) in the absence of UDP‐GlcNAc, K D ^S (D:D) and K D ^S (M:M) in the presence of UDP‐GlcNAc.

Data set [5] concerns the molecule itself. Description: mass photometry.
Data set [6] deals with the molecule itself. Put plainly: mass photometry. The source holds these as a separate data set.
[7] abbreviates: 100 μM UDP‐GlcNAc, DPBS pH 7.4, 20°C, Hill n fixed 1.3, read-out: IC50 ^S (T), GNE tetramer destabilization.
[8] abbreviates: absence of UDP-GlcNAc, read-out: IC50^0(D), GNE dimer inhibition.
[9] abbreviates: presence of 100 µM UDP-GlcNAc, read-out: IC50^S(D), GNE dimer inhibition.
[10] abbreviates: substrate titration against 800 nM GNE.

Like-named read-outs stand apart in the source and are kept apart here.

Consider `O=c1nc(/C=C/c2cc([N+](=O)[O-])ccc2Cl)cc(C(F)(F)F)[nH]1` [C13, (E)‐4‐(2‐chloro‐5‐nitrostyryl)‐6‐(trifluoromethyl)pyrimidin‐2(1H)‐one], for which the IC50 is 19.4 ± 4.2 µM in data set [1] (setting [7]), more than 1000 µM in data set [1] (setting [8]) and 472 ± 42.5 µM in data set [1] (setting [9]). The “effect on dimeric assembly” value in data set [1] is given as “significantly disrupted the dimeric assembly”. Besides, the Ki in data set [1] (100 μM UDP‐GlcNAc) was 0.508 ± 0.182 µM.

Take `COc1c(Br)cc(Br)cc1/C=C/c1cc(C(F)(F)F)[nH]c(=O)n1` [C15, (E)‐4‐(3,5‐dibromo‐2‐methoxystyryl)‐6‐(trifluoromethyl)pyrimidin‐2(1H)‐one]: in data set [2], the “K B (OMAM) fold lower than K B,app (Schild)” value was ~ 28 fold. For the same molecule, the “operational cooperativity factor β” value in data set [2] (OMAM fit) is “≈ 0”. Also, the “operational efficacy τ I (inhibitor)” value in data set [2] (OMAM fit) came out at 0.02. The “binding cooperativity factor ɑ” value in data set [2] (OMAM fit, between C15 and substrate binding) came out at 0.02. Further, the Kd in data set [2] (OMAM global fit (Equation S6), read-out: inhibitor affinity K B) was 0.0252 µM; in data set [2] (x‐intercept of linear Schild fit (linear region 0.8–10 μM C15), 800 nM GNE, read-out: apparent affinity K B,app) it was approximately 0.7 µM. The molecule also yielded a Schild slope m in data set [2] (linear region 0.8–10 μM C15, Equation S5) of 1.1. Moreover, the IC50 was 3.1 ± 1.2 µM in data set [1] (setting [7]), 21 ± 2.6 µM in data set [1] (setting [8]) and 173 ± 100 µM in data set [1] (setting [9]). The “tetramer inhibition at single concentration” value in data set [1] (31.25 μM C15, 800 nM GNE, 100 μM UDP‐GlcNAc) was “full tetramer inhibition”. In addition, in data set [1], the “effect on dimeric assembly” value is “significantly disrupted the dimeric assembly”. Besides, the Ki in data set [1] (100 μM UDP‐GlcNAc) turned out to be 0.0826 ± 0.0397 µM.

For the molecule `CC(=O)N[C@H]1[C@@H](OP(=O)([O-])OP(=O)([O-])OC[C@H]2O[C@@H](n3ccc(=O)[nH]c3=O)[C@H](O)[C@@H]2O)O[C@H](CO)[C@@H](O)[C@@H]1O.[Na+].[Na+]` [UDP‐GlcNAc, Uridine diphosphate N‐acetyglucosamine disodium salt], in data set [2] (OMAM fit), the “operational efficacy τ S (substrate)” value is reported as 17.6. Further, the “K M of GNE” value in data set [3] is 33.1 ± 4.2 µM. In addition, the “increase of dimer–dimer affinity by substrate binding” value in data set [4] is given as 98 fold. Further, the Kd in data set [4] (from tetramer curve, substrate titration against 800 nM GNE, Equation S2, read-out: substrate affinity K S) was 34.6 ± 3 µM; in data set [4] (presence of 100 μM UDP‐GlcNAc, fit Equation S1, read-out: K D ^S (D:D), GNE dimer–dimer interaction), 0.0981 ± 0.0091 µM; in data set [4] (presence of 100 μM UDP‐GlcNAc, fit Equation S1, read-out: K D ^S (M:M), GNE monomer–monomer interaction) it was 0.0372 ± 0.0075 µM; in data set [4] (presence of 100 μM UDP‐GlcNAc, mean calculated by law of mass action, read-out: K D ^S Calc.(D:D)), 0.221 ± 0.0272 µM; in data set [4] (presence of 100 μM UDP‐GlcNAc, mean calculated by law of mass action, read-out: K D ^S Calc.(M:M)) it was 0.0653 ± 0.0124 µM. Moreover, the “Hill coefficient n of tetramer fraction” value in data set [4] (setting [10]) is 1.3. In addition, the “maximal response E max (maximal tetramer fraction)” value in data set [4] (setting [10]) was 68.3%.

B1: GNE (UDP-GlcNAc 2-epimerase), monomer UDP-GlcNAc 2-epimerase domain (protein)
chain: T1 sequence (Q9Y223 1-405 limits assumed)
On to B1, for which the Kd in data set [5] was found to be 0.0126 µM.

B2: GNE (UDP-GlcNAc 2-epimerase), dimer UDP-GlcNAc 2-epimerase domain (protein)
chain: T1 sequence (Q9Y223 1-405 limits assumed)
B2 had a Kd in data set [6] of 9.6 µM.
